19 molecules from patent US11673889B2, “Substituted imidazo[4,5-c][1,8]naphthyridines as phosphodiesterase inhibitors” (Nanjing Zhengxiang Pharmaceuticals Co., Ltd., priority 2019, dated 2023) can be followed below.

In assay [1] the target is T1, human soluble ENPP1 (Homo sapiens, UniProt P22413).
T1 construct: 20 ng of human soluble ENPP1
T1 sequence (P22413 103-925 limits assumed): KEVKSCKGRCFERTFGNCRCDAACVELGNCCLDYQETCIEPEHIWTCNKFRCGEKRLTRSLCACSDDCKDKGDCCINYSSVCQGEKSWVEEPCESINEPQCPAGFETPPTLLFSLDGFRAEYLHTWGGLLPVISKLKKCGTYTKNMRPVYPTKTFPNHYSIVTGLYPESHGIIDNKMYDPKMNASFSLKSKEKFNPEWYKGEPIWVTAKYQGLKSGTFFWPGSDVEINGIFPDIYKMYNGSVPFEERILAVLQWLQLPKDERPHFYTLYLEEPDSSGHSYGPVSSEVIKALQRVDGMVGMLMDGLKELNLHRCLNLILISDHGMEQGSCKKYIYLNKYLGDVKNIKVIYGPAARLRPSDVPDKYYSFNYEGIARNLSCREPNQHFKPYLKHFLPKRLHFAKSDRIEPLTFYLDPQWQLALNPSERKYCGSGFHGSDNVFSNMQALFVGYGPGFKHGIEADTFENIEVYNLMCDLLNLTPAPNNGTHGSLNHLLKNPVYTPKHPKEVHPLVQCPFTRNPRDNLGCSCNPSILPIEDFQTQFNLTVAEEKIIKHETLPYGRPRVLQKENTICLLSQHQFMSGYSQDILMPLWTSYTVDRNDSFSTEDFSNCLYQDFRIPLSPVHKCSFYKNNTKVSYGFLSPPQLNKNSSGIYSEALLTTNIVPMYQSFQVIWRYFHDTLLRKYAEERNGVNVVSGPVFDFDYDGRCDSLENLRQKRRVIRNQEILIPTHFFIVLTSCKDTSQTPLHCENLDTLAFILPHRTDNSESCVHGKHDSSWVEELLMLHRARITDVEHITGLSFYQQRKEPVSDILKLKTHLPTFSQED
Kind of assay: ENPP1 activity assay using p-Nitrophenyl-5′-TMP as a substrate. In kind it is biochemical. As for the experimental part: ENPP1 is a transmembrane glycoprotein that hydrolyzes nucleotides and nucleotide derivatives with the formation of nucleotide-5′-monophosphates. ENPP1 hydrolyzes artificial phosphoric acid ester thymidine 5′monophosphate p-nitrophenyl ester (TMP-pNP) to nucleotide-5′-monophosphate and p-nitrophenol, which is a chromogenic product.
Load into a well with 20 ng of human soluble ENPP1 in 50 μL and incubate at room temperature with 25 μL inhibitor solution (4× Final Concentration) for 30 mins. Then, add 25 μL 2 mM TMP solution (2× Final Concentration) into the well, Incubate at RT for 1 hour.
(§1) The percent inhibition at each compound is calculated as follows: % inhibition=(ODMAX−ODCOMPOUND)/(ODMAX−ODMIN)*100. (MAX: absence of ENPP1 inhibitors control, MIN: blank control.)
The IC50 values for percent inhibition versus compound concentration were determined by fitting the inhibition curves using a four-parameter variable slope model in GraphPad Prism® 8.

Assay [2] has as its target T1, human soluble ENPP1. Nature of the assay: ENPP1 activity assay using p-Nitrophenyl-5′-AMP as a substrate. In kind it is biochemical. As for the experimental part: AMP-pNP can be used as substrate of ENPP-1. Its hydrolysis products were nucleotide-5′-monophosphate and p-nitrophcnol, which is also a chromogenic product. The amount of p-nitrophenol product formed is measured using its absorbance at 405 nm, which is directly proportional to enzyme activity.
Load into a well with […] of human soluble ENPP1 in 50 μL and incubate at room temperature with 25 μL inhibitor solution (4× Final Concentration) for 30 mins prior adding 25 μL 3 mM AMP solution (2× Final Concentration) into the well, Incubate at RT for 1 hour. The amounts of released p-nitrophenolate were measured by reading OD value at 405 nm.
as §1
(§2) The IC50 values for percent inhibition versus compound concentration are determined by fitting the inhibition curves using a four-parameter variable slope model in GraphPad Prism® 8.

Assay [3] addresses T2, ENPP-1, MDA-MB-231 cells (Homo sapiens, UniProt P22413).
T2 sequence (P22413 1-925): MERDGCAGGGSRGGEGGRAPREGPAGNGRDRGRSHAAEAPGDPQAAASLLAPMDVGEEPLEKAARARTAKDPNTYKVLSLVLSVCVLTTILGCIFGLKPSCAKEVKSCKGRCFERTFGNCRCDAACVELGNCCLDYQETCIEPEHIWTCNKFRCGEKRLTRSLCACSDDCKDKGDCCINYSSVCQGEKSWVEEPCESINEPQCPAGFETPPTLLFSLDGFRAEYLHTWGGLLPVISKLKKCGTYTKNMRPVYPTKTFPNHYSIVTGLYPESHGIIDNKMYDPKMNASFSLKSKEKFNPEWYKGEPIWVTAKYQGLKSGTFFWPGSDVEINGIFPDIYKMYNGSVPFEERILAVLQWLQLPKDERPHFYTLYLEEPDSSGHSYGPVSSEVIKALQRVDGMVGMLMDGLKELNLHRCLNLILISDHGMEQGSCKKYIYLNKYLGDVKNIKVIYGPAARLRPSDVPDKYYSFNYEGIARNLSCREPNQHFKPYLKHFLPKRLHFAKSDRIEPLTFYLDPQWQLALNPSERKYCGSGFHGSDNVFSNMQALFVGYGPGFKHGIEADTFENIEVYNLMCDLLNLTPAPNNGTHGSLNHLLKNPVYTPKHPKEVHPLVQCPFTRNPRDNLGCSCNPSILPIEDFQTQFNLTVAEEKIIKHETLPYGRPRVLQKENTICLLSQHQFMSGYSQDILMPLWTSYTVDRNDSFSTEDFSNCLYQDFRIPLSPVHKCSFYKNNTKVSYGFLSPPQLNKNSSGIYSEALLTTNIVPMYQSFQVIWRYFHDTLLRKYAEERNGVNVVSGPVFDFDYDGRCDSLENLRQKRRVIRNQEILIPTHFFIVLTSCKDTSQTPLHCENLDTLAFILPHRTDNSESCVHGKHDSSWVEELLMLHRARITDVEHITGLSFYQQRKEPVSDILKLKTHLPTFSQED
Nature of the assay: cell-based. Particulars: for inhibition at 20 µM: MDA-MB-231, read-out: % Inhibition (at 20 μM). How it is done: ENPP-1 were mainly expressed on the surface of cell membrane where it hydrolytes 2′3′-cGAMP to generate 5′-GMP and 5′-AMP. ENPP-1 also has the ability to hydrolyzes artificial phosphoric acid ester TMP-pNP to nucleotide-5′-monophosphate and p-nitrophcnol there, which is a chromogenic product.
8 point of different concentrations of each inhibitor were prepared with the final assay concentrations starting at 20 μM. 3× series dilution by DMEM medium without FBS was applied. Prior to adding inhibitors, 75000 cells per well were incubated at 37° C., 5% CO2 in DMEM for 24 hours. After removing the supernatant medium, 50 μL inhibitor solution was added into each well with cultured cells and incubate at 37° C., 5% CO2 for 60 minutes.
as §2

As to `COc1ccc2c(ncc3nc(OC)n(Cc4ccc(S(N)(=O)=O)c(F)c4)c32)n1` [Compound 78, 4-((2,7-dimethoxy-1H-imidazo[4,5-c][1,8]naphthyridin-1-yl)methyl)-2-fluorobenzenesulfonamide], the IC50 (commonly the concentration needed to halve the response being measured) stood at 1.7 nM in assay [1] and 7.2 nM in assay [2]. Taken in the same sequence, the figures for `COc1cc2ncc3nnn(Cc4ccc(S(N)(=O)=O)cc4)c3c2cc1OC` [Compound 13, 4-((7,8-dimethoxy-1H-[1,2,3]triazolo[4,5-c]quinolin-1-yl)methyl)benzenesulfonamide] were 4.3 nM and 33 nM.

As for `COc1ccc2c(ncc3[nH]c(=O)n(Cc4c(F)cc(NS(N)(=O)=O)cc4F)c32)n1` [Compound 138], the concentration for half-maximal inhibition (IC50) in assay [1] worked out at 38 nM; in assay [2], 141 nM. In assay [1], `COc1cc2ncc3nnc(Cc4ccc(S(N)(=O)=O)cc4)n3c2cc1OC` [Compound 44, 4-((7,8-dimethoxy-2λ^2,10λ^4-[1,2,4]triazolo[4,3-a]quinoxalin-1-yl)methyl)benzenesulfonamide] returned an IC50 of 65 nM.

Regarding `COc1ccc2c(ncc3nc(C)n(Cc4c(F)cc(S(N)(=O)=O)cc4F)c32)n1` [Compound 130, 3,5-difluoro-4-((7-methoxy-2-methyl-1H-imidazo[4,5-c][1,8]naphthyridin-1-yl)methyl)benzenesulfonamide], the IC50 is 0.16 nM in assay [1] (substrate TMP-pNP, 20 ng human soluble ENPP1, Tris buffer pH 9.5, read-out: TMP-pNP (IC50)) and 0.16 nM in assay [2]. As for `COc1ccc2c(ncc3[nH]c(=O)n(Cc4cc(F)c(S(N)(=O)=O)c(F)c4)c32)n1` [Compound 100, 2,6-difluoro-4-((7-methoxy-2-oxo-2,3-dihydro-1H-imidazo[4,5-c][1,8]naphthyridin-1-yl)methyl)benzenesulfonamide], the IC50 in assay [1] was found to be 8.8 nM. For the molecule `CNS(=O)(=O)c1cc(F)c(Cn2c(=O)[nH]c3cnc4nc(OC)ccc4c32)c(F)c1` [Compound 107, 3,5-difluoro-4-((7-methoxy-2-oxo-2,3-dihydro-1H-imidazo[4,5-c][1,8]naphthyridin-1-yl)methyl)-N-methylbenzenesulfonamide], the IC50 in assay [1] amounted to 43 nM; in assay [2], 79 nM. Molecule `COc1cc2ncc3c(c2cc1OC)n(Cc1ccc(S(N)(=O)=O)cc1)c(=O)n3C` [Compound 2, 4-((7,8-dimethoxy-3-methyl-2-oxo-2,3-dihydro-1H-imidazo[4,5-c]quinolin-1-yl)methyl)benzenesulfonamide] gave an IC50 in assay [1] of 10 nM. On to `COc1ccc2c(c1)ncc1[nH]c(=O)n([C@H](C)c3ccc(S(N)(=O)=O)cc3)c12` [Compound 8, (R)-4-(1-(7-methoxy-2-oxo-2,3-dihydro-1H-imidazo[4,5-c]quinolin-1-yl)ethyl)benzenesulfonamide], for which the IC50 in assay [1] amounted to 0.3 nM.

In assay [1], `COc1cc2ncc3ncn([C@@H](C)c4ccc(S(N)(=O)=O)cc4)c3c2cc1OC` [Compound 11b, (S)-4-(1-(7,8-dimethoxy-1H-imidazo[4,5-c]quinolin-1-yl)ethyl)benzenesulfonamide] displayed an IC50 of 196 nM. Consider `CCCC(=O)NS(=O)(=O)c1cc(F)c(Cn2c(=O)[nH]c3cnc4nc(OC)ccc4c32)c(F)c1` [Compound 106, sodium butyryl((3,5-difluoro-4-((7-methoxy-2-oxo-2,3-dihydro-1H-imidazo[4,5-c][1,8]naphthyridin-1-yl)methyl)phenyl)sulfonyl)amide], for which, in assay [3], the IC50 was over 6700 nM and the inhibition (commonly the drop in the measured response relative to a control, in per cent) at 20 µM stood at 57%. In assay [1], `COc1cc2ncc3ncn(Cc4cccc(S(N)(=O)=O)c4)c3c2cc1OC` [Compound 37, 3-((7,8-dimethoxy-1H-imidazo[4,5-c]quinolin-1-yl)methyl)benzenesulfonamide] returned an IC50 of 165 nM. As for `COc1ccc2c(ncc3ncn(Cc4c(F)cc(S(N)(=O)=O)cc4F)c32)n1` [Compound 129, 3,5-difluoro-4-((7-methoxy-1H-imidazo[4,5-c][1,8]naphthyridin-1-yl)methyl)benzenesulfonamide], the IC50 in assay [1] amounted to 0.1 nM; in assay [2] it was 0.19 nM. As to `COc1ccc2c(ncc3[nH]c(=O)n(Cc4c(F)cc(C(N)=O)cc4F)c32)n1` [Compound 109, 3,5-difluoro-4-((7-methoxy-2-oxo-2,3-dihydro-1H-imidazo[4,5-c][1,8]naphthyridin-1-yl)methyl)benzamide], in assay [3], the IC50 is over 20000 nM and the inhibition at 20 µM came out at 11%. `COc1cc2ncc3ncn(Cc4ccc(S(N)(=O)=O)cc4)c3c2cn1` [Compound 50, 4-((7-methoxy-1H-imidazo[4,5-c][1,6]naphthyridin-1-yl)methyl)benzenesulfonamide] had an IC50 in assay [1] of 28 nM. Same read-out and setting: under `COc1cc2ncc3nnc(-c4ccc(CNS(N)(=O)=O)cc4)n3c2cc1OC` [Compound 51, 4-(7,8-dimethoxy-[1,2,4]triazolo[4,3-a]quinoxalin-1-yl)benzyl sulfamide] stands 884 nM. On to `COc1nc2nc(C)c3nc(C)n(Cc4ncc(S(N)(=O)=O)cn4)c3c2cc1Cl` [Compound 91b, 2-((6-chloro-7-methoxy-2,4-dimethyl-1H-imidazo[4,5-c][1,8]naphthyridin-1-yl)methyl)pyrimidine-5-sulfonamide], for which the IC50 was 62 nM in assay [1] and 199 nM in assay [2]. The molecule `COc1cc2ncc3ncn(CC4CCN(S(N)(=O)=O)CC4)c3c2cc1OC` [Compound 32, 4-((7,8-dimethoxy-1H-imidazo[4,5-c]quinolin-1-yl)methyl)piperidine-1-sulfonamide] showed an IC50 in assay [1] of 7.7 nM. As to `COc1ccc2c(ncc3[nH]c(=O)n(Cc4ccc(CS(N)(=O)=O)cc4)c32)n1` [Compound 128, (4-((7-Methoxy-2-oxo-2,3-dihydro-1H-imidazo[4,5-c][1,8]naphthyridin-1-yl)methyl)phenyl)-methanesulfonamide], the inhibition at 20 µM in assay [3] is 82%.
